PMC5748279, “Novel Antitubercular 6-Dialkylaminopyrimidine Carboxamides from Phenotypic Whole-Cell High Throughput Screening of a SoftFocus Library: Structure–Activity Relationship and Target Identification Studies” (Journal of Medicinal Chemistry, 2017)
≈ marks a conversion by molar mass, not a printed value. Where “and” joins values, the source holds several entries; their conditions need not be identical. Identical values can stand only once.

Experiments:
[1] = format: in vitro ADME
Experimental: and ultracentrifuged for 4 hours (42000 rpm, 37 °C, Beckman Optima L,80XP). Analyte concentration of all compounds and sample types were determined by means of LC,MS/MS (Agilent Rapid Resolution HPLC, AB SCIEX 4000 QTRAP MS).
4.4) Lipophilicity (LogD7.4)
The lipophilicity assay was performed in triplicate using a shake,flask procedure. 10 mM stock solutions of each test compound were used to spike (100 µM) a 1:1 mixture of phosphate buffer (pH 7.4) and n,octanol. The solutions were shaken vigorously (1500 rpm) on an orbital shaker for 3 hours at room temperature. Thereafter the samples were centrifuged in order to fully separate the two immiscible fluids. The samples were analysed by HPLC,DAD (Agilent 1200 Rapid Resolution HPLC with a diode array detector) and the amount of compound in the buffer and n, octanol were used to determine the partition coefficient, LogD7.4.15
4.5) Parallel Artificial Membrane Permeability Assay (PAMPA):
The PAMPA assay was performed in triplicate in 96,well MultiScreen Filter plates (Millipore, 0.4 µM PCTE Membrane). Membrane filters were pre,coated with 5% hexadecane in hexane and allowed to dry prior to the assay. Membrane integrity marker, Lucifer yellow was added to the apical wells of the pre,coated MultiScreen plate donor/drug solutions containing test compound.
Phosphate buffer (pH7.4) was added to the 96,well acceptor plate. 10 mM test compound was used to spike (1 µM) the donor buffer at physiologically relevant pH's (pH 4, 6.5 and 8), the donor plate slotted into the acceptor plate and incubated (4 hours at room temperature) with gentle shaking (40,50 rpm). Following the incubation, sample from the acceptor wells and theoretical equilibrium wells were transferred to the analysis plate and matrix matched with blank donor buffer. Acetonitrile containing internal standard (carbamazepine, 0.0236 µg/mL) was added to all samples and they were analysed by LC,MS/MS (Agilent Rapid Resolution HPLC, AB SCIEX 4500 MS). The normalised (analyte/internal) peak areas were used to calculate the apparent permeability (Papp). Membrane integrity was assessed by calculating the Papp of Lucifer Yellow […]
chemosensitivity. […]. Thus only viable cells […]
formazan. Formazan crystals are dissolved in DMSO. The test samples were tested in triplicate on […]
experiment. […] Emetine was used […]
as the reference drug in all experiments. The initial concentration of emetine was 100 µg/mL, […]
lowest being 0.001 µg/mL. […] The […]
the cell viability (data not shown).
GraphPad Prism v.4 software. […]
expressing the full length hERG channel. Single cell ionic currents were measured in the […]

in vivo = details: male, C57/BL6, mouse
[2] = test system: Mtb::gfp strain (H37RvMa::pMSP12GFP); format: cell-based; details: supplementary csv
BCG_3193 (Rv3169) [3] = biological target: T1, BCG_3193 (Rv3169) (Mycobacterium bovis BCG, UniProt A0A1R3Y3B6); assay: biochemical; format: binding
BCG_3827 (Rv3768) = format: binding, Mycobacterium bovis BCG
BCG_3193 (Rv3169) [4] = biological target: T1, BCG_3193 (Rv3169); assay: biochemical; parameters: species or system Mycobacterium bovis BCG extract; details: bead competition in BCG extract
[5] = Caseum binding using surrogate caseum
[6] = test system: Mycobacterium tuberculosis (H37RvMa); assay: microbe, parasite or virus in culture; format: cell-based; details: for MIC: Mycobacterium tuberculosis, medium not stated
physchem [7] = format: physicochemical; details: pH 7.4, pH 7.4
Experimental: (§1) The kinetic solubility assay was performed using a miniaturised shake flask method. 10 mM stock […]
(§2) DMSO, and to spike (1:50) duplicate aqueous samples of FaSSIF (simulating fasting state biorelevant media, pH 6.5), with a final DMSO concentration of 2%. After shaking for 2 hours at 25 °C, the solutions were filtered and analysed by means of HPLC,DAD (Agilent 1200 Rapid Resolution HPLC with a diode array detector). Best fit calibration curves were constructed using the calibration standards, which were used to determine the aqueous samples’ solubility.13
(§3) 4.2) Microsomal stability
(§4) The metabolic stability assay was performed in duplicate in a 96,well micro titre plate. The test compounds (0.1 µM) were incubated individually in mouse, rat and pooled human liver […]
(§5) the cofactor NADPH (1 mM). Reactions were quenched by adding 300 µL of ice cold acetonitrile containing internal standard (carbamazepine, 0.0236 µg/mL). Test compounds in the supernatant were analysed by means of LC,MS/MS (Agilent Rapid Resolution HPLC, AB SCIEX 4000 QTRAP MS) for the disappearance of parent compound. Metabolite searches were not conducted during the metabolic stability assay.14
(§6) 4.3) Plasma protein binding (PPB) assay
The plasma protein binding assay was performed in a 96,well micro titre plate with pooled human plasma, spiked with test compound (5 µM). An aliquot was immediately removed and quenched using ice cold acetonitrile containing internal standard (carbamazepine, 0.0236 µg/mL), and placed in the freezer. This served as the total concentration sample. After pre,incubation (37 °C for 1 hour) duplicate aliquots of the spiked plasma were transferred to ultra,centrifugation tubes, […]

[8] = test system: Mycobacterium tuberculosis (H37RvMa); assay: microbe, parasite or virus in culture; parameters: MIC99 by standard broth microdilution against M. tuberculosis H37Rv; details: read-out: MIC99 7H9/ADC (æM)
physchem [9] = details: sheet table;; kinetic solubility, pH 7.4; aqueous buffer pH 7.4; Kinetic solubility at pH 7.4; read-out: Solubility (æM)
Experimental: as §1, §2, §3, §4, §5, §6
The plasma protein binding assay was performed in a 96,well micro titre plate with pooled human plasma, spiked with test compound (5 µM). […]

T1 sequence (A0A1R3Y3B6 1-374): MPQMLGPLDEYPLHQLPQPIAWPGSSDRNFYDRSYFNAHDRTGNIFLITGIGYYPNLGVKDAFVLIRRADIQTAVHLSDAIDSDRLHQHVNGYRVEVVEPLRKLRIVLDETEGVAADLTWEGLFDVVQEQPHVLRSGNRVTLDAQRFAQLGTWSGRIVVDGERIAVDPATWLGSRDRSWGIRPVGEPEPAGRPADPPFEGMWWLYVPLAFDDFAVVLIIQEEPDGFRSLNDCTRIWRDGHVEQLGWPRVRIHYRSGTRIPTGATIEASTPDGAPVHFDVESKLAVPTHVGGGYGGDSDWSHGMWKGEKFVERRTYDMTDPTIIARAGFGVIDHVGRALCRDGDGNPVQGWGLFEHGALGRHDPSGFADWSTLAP

Question: For `CN(Cc1ccc(C(F)(F)F)nc1)c1cc(C(=O)Nc2ccccc2)ncn1` [Compound 20, 6-(Methyl((6-(trifluoromethyl)pyridin-3-yl)methyl)amino)-N-phenylpyrimidine-4-carboxamide], which “PAMPA log Papp” value [1] is on record?
Answer: –3.8

Question: And the AUC(0-inf) at 24 h (in vivo; iv, 5 mg/kg)?
Answer: 19.6 µM·h

Question: And the clearance at 24 h (in vivo; iv, 5 mg/kg)?
Answer: 11.2 mL/min/kg

Question: What about the AUC(0-inf) at 24 h (in vivo; po, 20 mg/kg) of the same molecule?
Answer: 33.3 µM·h

Question: Which “MIC99 7H9/ADC (values marked c: GFP strain based assay)” value ([2]; 7H9/ADC medium) does the source give for `CN(Cc1ccc(C(F)(F)F)cc1)c1cc(C(=O)NC2CCCCC2)ncn1` [Compound 34, N-Cyclohexyl-6-(methyl(4-(trifluoromethyl)benzyl)amino)pyrimidine-4-carboxamide] here?
Answer: >125c æM

Question: What about the “MIC99 GAST/Fe (values marked c: GFP strain based assay)” value ([2]; GAST/Fe medium) of the same molecule?
Answer: 12c æM

Question: With `CN1CCN(c2ccc(NC(=O)c3cc(N(C)Cc4ccc(C(F)(F)F)cc4)ncn3)cc2)CC1` [Compound 40, 6-(Methyl(4-(trifluoromethyl)benzyl)amino)-N-(4-(4-methylpiperazin-1-yl)phenyl)pyrimidine-4-carboxamide] as the molecule, how does the Hill (BCG_3193 (Rv3169) [3]) read?
Answer: 1.62

Question: And the “binding of BCG_3193 to the compound beads in presence of free compound” value (BCG_3193 (Rv3169) [3])?
Answer: reduced binding

Question: What about the IC50 (BCG_3193 (Rv3169) [3]; IC50) of the same molecule?
Answer: 1.1 µM

Question: And the Kd (BCG_3193 (Rv3169) [3]; apparent dissociation constant Kd^app for BCG_3193)?
Answer: 0.61 µM and 0.69 µM

Question: What about the IC50 (BCG_3193 (Rv3169) [3]; pIC50) of the same molecule?
Answer: 1.1 µM

Question: What about the IC50 (BCG_3827 (Rv3768)) of the same molecule?
Answer: 10 µM

Question: And the “binding of BCG_3827 to the compound beads in presence of free compound” value (BCG_3827 (Rv3768))?
Answer: reduced binding

Question: What about the Kd (BCG_3827 (Rv3768); read-out: apparent dissociation constant Kd^app for BCG_3827) of the same molecule?
Answer: 2.1 µM and 3.8 µM

Question: What about the “PAMPA log Papp” value [1] of the same molecule?
Answer: –4.5

Question: And the AUC(0-inf) at 24 h (in vivo; iv, 5 mg/kg)?
Answer: 9 µM·h

Question: What about the half-life at 24 h (in vivo; iv, 5 mg/kg) of the same molecule?
Answer: 10.3 h

Question: What about the AUC(0-inf) at 24 h (in vivo; po, 20 mg/kg) of the same molecule?
Answer: 9.4 µM·h

Question: What about the half-life at 24 h (in vivo; po, 20 mg/kg) of the same molecule?
Answer: 15.8 h

Question: What about the IC50 (BCG_3193 (Rv3169) [4]; IC50, Experiment ID=X028553) of the same molecule?
Answer: 1.7 µM

Question: What about the IC50 (BCG_3193 (Rv3169) [4]; IC50, Experiment ID=X028554) of the same molecule?
Answer: 1.5 µM

Question: And the caseum distribution unbound [5]?
Answer: 0.1%

Question: With `CN1CCN(c2cccc(NC(=O)c3cc(N(C)Cc4ccc(F)cc4)ncn3)c2)CC1` [Compound 42, 6-((4-Fluorobenzyl)(methyl)amino)-N-(3-(4-methylpiperazin-1-yl)phenyl)pyrimidine-4-carboxamide] as the molecule, how does the “MIC values dropping by fold” value ([6]; 3-position versus 4-position N-methylpiperazine) read?
Answer: 10- to 30 fold

Question: With `CN(Cc1ccc(F)cc1)c1cc(C(=O)Nc2ccc(N3CCOCC3)cc2)ncn1` [Compound 45, 6-((4-Fluorobenzyl)(methyl)amino)-N-(4-morpholinophenyl)pyrimidine-4-carboxamide] as the molecule, how does the MIC [6] read?
Answer: < 5 µM

Question: Which MIC [6] does the source give for `CN(Cc1ccc(C(F)(F)F)nc1)c1cc(C(=O)Nc2ccc(N3CCOCC3)cn2)ncn1` [Compound 46, 6-(Methyl((6-(trifluoromethyl)pyridin-3-yl)methyl)amino)-N-(5-morpholinopyridin-2-yl)pyrimidine-4-carboxamide] here?
Answer: 2 to 3 µM (≈ 0.947 to 1.42 µg/mL)

Question: What does the source list for `CN(Cc1ccc(F)cc1)c1cc(C(=O)Nc2nncs2)ncn1` [Compound 51, 6-((4-Fluorobenzyl)(methyl)amino)-N-(1,3,4-thiadiazol-2-yl)pyrimidine-4-carboxamide]?
Answer: solubility kinetic at 2 h (physchem [7]): > 100 µM; AUC(0-inf) at 24 h (in vivo; iv, 5 mg/kg): 22.1 µM·h; clearance at 24 h (in vivo; iv, 5 mg/kg): 11.1 mL/min/kg; half-life at 24 h (in vivo; iv, 5 mg/kg): 5.1 h; AUC(0-inf) at 24 h (in vivo; po, 20 mg/kg): 17 µM·h; half-life at 24 h (in vivo; po, 20 mg/kg): 4.4 h; caseum distribution unbound [5]: 0.5%

Question: For `O=C(Nc1ccccc1)c1cc(OCC2CCCCC2)ncn1` [compound 4], which MIC99 [8] is on record?
Answer: > 160 µM

Question: What does the source list for `[C-]#[N+]c1ccc(CN(C)c2cc(C(=O)Nc3ccccc3)ncn2)cc1` [compound 16]?
Answer: MIC99 [8]: > 50 µM; solubility at 2 h (physchem [9]): < 5 µM
